Measured values: patent US7173133B2, “Diaza-spiropiperidine derivatives” (Hoffmann-La Roche Inc., priority 2004, dated 2007)

Target: T1, mGlyT-1b (Mus musculus, UniProt P28571)
T1 sequence (P28571 1-651 isoform P28571-2): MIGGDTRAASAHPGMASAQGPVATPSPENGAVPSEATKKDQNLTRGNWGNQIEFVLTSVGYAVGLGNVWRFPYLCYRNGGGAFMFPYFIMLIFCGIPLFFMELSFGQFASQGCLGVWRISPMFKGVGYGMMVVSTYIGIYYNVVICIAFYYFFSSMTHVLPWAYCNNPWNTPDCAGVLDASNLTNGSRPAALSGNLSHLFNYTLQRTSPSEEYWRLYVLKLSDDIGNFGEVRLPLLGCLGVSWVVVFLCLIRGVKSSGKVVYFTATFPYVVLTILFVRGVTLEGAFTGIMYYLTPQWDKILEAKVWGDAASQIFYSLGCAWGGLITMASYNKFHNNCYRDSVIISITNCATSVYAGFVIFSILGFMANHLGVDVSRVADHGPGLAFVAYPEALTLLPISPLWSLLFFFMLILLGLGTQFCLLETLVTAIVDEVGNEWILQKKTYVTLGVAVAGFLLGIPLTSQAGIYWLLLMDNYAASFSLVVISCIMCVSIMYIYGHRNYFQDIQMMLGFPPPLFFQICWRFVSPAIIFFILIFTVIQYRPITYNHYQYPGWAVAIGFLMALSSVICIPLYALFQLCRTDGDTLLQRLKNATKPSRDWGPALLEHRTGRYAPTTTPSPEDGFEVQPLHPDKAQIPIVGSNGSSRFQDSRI
Experiment: Glycine uptake inhibition assay (mGlyT-1b)
Format: cell-based
Details: [3H]-glycine uptake in Flp-in-CHO cells transfected with mGlyT-1b cDNA; values of some enantiomers
Method: DMEM complete medium: Nutrient mixture F-12 (Gibco Life-technologies), fetal bovine serum (FBS) 5%, (Gibco life technologies), Penicillin/Streptomycin1% (Gibco life technologies), Hygromycin 0.6 mg/ml (Gibco life technologies), Glutamine 1 mM Gibco life technologies).
Uptake buffer (UB): 150 mM NaCl, 10 mM Hepes-Tris, pH 7.4, 1 mM CaCl2, 2.5 mM KCl, 2.5 mM MgSO4, 10 mM (+) D-glucose.
Flp-in™-CHO (Invitrogen Cat n° R758–07) cells stably transfected with mGlyT1b cDNA.
Glycine Uptake Inhibition Assay (mGlyT-1b)
On day 1 mammalian cells, (Flp-in™-CHO), transfected with mGlyT-1b cDNA, were plated at the density of 40,000 cells/well in complete F-12 medium, without hygromycin in. 96-well culture plates. On day 2, the medium was aspirated and the cells were washed twice with uptake buffer (UB). The cells were then incubated for 20 min at 22° C. with either (i) no potential competitor, (ii) 10 mM non-radioactive glycine, (iii) a concentration of a potential inhibitor. […] A solution was then immediately added containing [^3H]-glycine 60 nM (11–16 Ci/mmol) and 25 μM non-radioactive glycine. The plates were incubated with gentle shaking and the reaction was stopped by aspiration of the mixture and washing (three times) with ice-cold UB. The cells were lysed with scintillation liquid, shaken 3 hours and the radioactivity in the cells was counted using a scintillation counter.

## O=C1NCC(c2ccccc2)C12CCN([C@@H]1CCCC[C@@H]1c1ccccc1)CC2 (mixture of isomers) [Example 1, cis-rac-4-Phenyl-8-(2-phenyl-cyclohexyl)-2,8-diaza-spiro[4.5]decan-1-one]
  IC50: 61 nM

## Cc1ccc([C@H]2CCCC[C@H]2N2CCC3(CC2)C(=O)NCC3c2ccccc2)cc1 (mixture of isomers) [Example 2, Cis-rac-4-Phenyl-8-(2-p-tolyl-cyclohexyl)-2,8-diaza-spiro[4.5]decan-1-one]
  IC50: 105 nM

## O=C1NCC(c2ccccc2)C12CCN([C@@H]1CCCC[C@@H]1c1ccc(F)cc1)CC2 (mixture of isomers) [Example 6, cis-rac-8-[2-(4-Fluoro-phenyl)-cyclohexyl]-4-phenyl-2,8-diaza-spiro[4.5]decan-1-one]
  IC50: 48 nM

## O=C1NCC(c2ccc(F)cc2)C12CCN([C@@H]1CCCC[C@@H]1c1ccc(C(F)(F)F)cc1)CC2 (mixture of isomers) [Example 10, cis-rac-4-(4-Fluoro-phenyl)-8-[2-(4-trifluoromethyl-phenyl)-cyclohexyl]-2,8-diaza-spiro[4.5]decan-1-one]
  IC50: 91 nM

## O=C1NCC(c2ccccc2)C12CCN(C1CCCCC1(O)c1ccc(F)cc1)CC2 (centres unmarked) [Example 11, 8-[2-(4-Fluoro-phenyl)-2-hydroxy-cyclohexyl]-4-phenyl-2,8-diaza-spiro[4.5]decan-1-one]
  IC50: 70 nM

## O=C1NCC(c2ccc(F)cc2)C12CCN(C1CCCCC1(O)c1ccccc1F)CC2 (centres unmarked) [Example 16, 4-(4-Fluoro-phenyl)-8-[2-(2-fluoro-phenyl)-2-hydroxy-cyclohexyl]-2,8-diaza-spiro[4.5]decan-1-one]
  IC50: 69 nM

## O=C1NCC(c2ccc(F)cc2)C12CCN(C1CCCCC1(O)c1cccc(Cl)c1)CC2 (centres unmarked) [Example 17, 8-[2-(3-Chloro-phenyl)-2-hydroxy-cyclohexyl]-4-(4-fluoro-phenyl)-2,8-diaza-spiro[4.5]decan-1-one]
  IC50: 73 nM

## O=C1NCC(c2ccc(F)cc2)C12CCN(C1COCCC1(O)c1ccccc1)CC2 (stereo not drawn) [Example 29, 4-(4-Fluoro-phenyl)-8-trans-(4-hydroxy-4-phenyl-tetrahydro-pyran-3-yl)-2,8-diaza-spiro[4.5]decan-1-one]
  IC50: 91 nM
